Test results taken from patent publication US9701664B2, “Fused 1,4-dihydrodioxin derivatives as inhibitors of heat shock transcription factor 1” (Cancer Research Technology Limited, priority 2013, dated 2017).
Structures can show the parent of a compound that is named as a salt.

How the values were obtained:
[1] = test system: U2OS cells; test: Titre Blue cell viability assay, U2OS cells; format: cell-based; settings: Homo sapiens, U2OS
[2] = test system: HSP72 in U2OS cells; test: Cell-based ELISA (Cellisa) assay, U2OS cells: inhibition of 17-AAG-induced HSP72; settings: Homo sapiens; U2OS cells (Examples 1-168)

Row | Compound | IC50 [1] | IC50 [2]
1 | COc1cc(C(=O)Nc2cc(NC(=O)c3ccc4c(c3)OCCO4)ccc2C)ccc1Br [Example 41, N-(3-(4-bromo-3-methoxybenzamido)-4-methylphenyl)-2,3-dihydrobenzo[b][1,4]dioxine-6-carboxamide] | 154 nM | 104 nM
2 | Cc1ccc(NC(=O)c2ccc3c(c2)OCCO3)cc1NC(=O)c1ccc2[nH]c(=O)ccc2c1 [Example 48, N-(5-(2,3-dihydrobenzo[b][1,4]dioxine-6-carboxamido)-2-methylphenyl)-2-oxo-1,2-dihydroquinoline-6-carboxamide] | 172 nM | 141 nM
3 | CNCCCOc1ccc2cc(C(=O)Nc3cc(NC(=O)c4ccc5c(c4)OCCO5)ccc3C)ccc2n1 [Example 76, N-(5-(2,3-dihydrobenzo[b][1,4]dioxine-6-carboxamido)-2-methylphenyl)-2-(3-(methylamino)propoxy)quinoline-6-carboxamide] | 10 nM | 21 nM
4 | Cc1ccc(NC(=O)c2ccc3c(c2)OCCO3)cc1NC(=O)c1ccc2nc(OC(C)CN3CCCC3)ccc2c1 (stereo not drawn) [Example 73, N-(5-(2,3-dihydrobenzo[b][1,4]dioxine-6-carboxamido)-2-methylphenyl)-2-((1-(pyrrolidin-1-yl)propan-2-yl)oxy)quinoline-6-carboxamide] | 21 nM | 90 nM
5 | Cc1ccc(NC(=O)c2ccc3c(c2)OCCO3)cc1NC(=O)c1ccc2nc(OCCN3CCCC3C)ccc2c1 (stereo not drawn) [Example 61, N-(5-(2,3-dihydrobenzo[b][1,4]dioxine-6-carboxamido)-2-methylphenyl)-2-(2-(2-methylpyrrolidin-1-yl)ethoxy)quinoline-6-carboxamide] | 18 nM | 16 nM
6 | Cc1ccc(NC(=O)c2ccc3c(c2)OCCO3)cc1NC(=O)c1ccc2nc(CN3CCCC3)ccc2c1 [Example 67, N-(5-(2,3-dihydrobenzo[b][1,4]dioxine-6-carboxamido)-2-methylphenyl)-2-(pyrrolidin-1-ylmethyl)quinoline-6-carboxamide formate] | 33 nM | 35 nM
7 | Cc1ccc(NC(=O)c2ccc3c(c2)OCCO3)cc1NC(=O)c1ccc2c(c1)COC2 [Example 15, N-(3-(1,3-dihydroisobenzofuran-5-carboxamido)-4-methylphenyl)-2,3-dihydrobenzo[b][1,4]dioxine-6-carboxamide] | 75 nM | 76 nM
8 | Cc1ccc(NC(=O)c2ccc3c(c2)OCCO3)cc1NC(=O)c1ccc2nc(OCCCNC(=O)OC(C)(C)C)ccc2c1 [Example 35, tert-butyl (3-((6-((5-(2,3-dihydrobenzo[b][1,4]dioxine-6-carboxamido)-2-methylphenyl)carbamoyl)quinolin-2-yl)oxy)propyl)carbamate] | 432 nM | 867 nM
9 | Cc1ccc(NC(=O)c2ccc3c(c2)OCO3)cc1NC(=O)c1ccc2ncccc2c1 [Example 131, N-(5-(benzo[d][1,3]dioxole-5-carboxamido)-2-methylphenyl)quinoline-6-carboxamide] | 74 nM | 171 nM
10 | Cc1ccc(NC(=O)c2ccc3c(c2)OCCO3)cc1NC(=O)c1ccc2nc(OCCCN3CCCCC3)ccc2c1 [Example 52, N-(5-(2,3-dihydrobenzo[b][1,4]dioxine-6-carboxamido)-2-methylphenyl)-2-(3-(piperidin-1-yl)propoxy)quinoline-6-carboxamide] | 6 nM | 12 nM
11 | Cc1ccc(NC(=O)c2ccc3c(c2)OCCO3)cc1NC(=O)c1ccc2c(c1)CCO2 [Example 6, N-(3-(2,3-dihydrobenzofuran-5-carboxamido)-4-methylphenyl)-2,3-dihydrobenzo[b][1,4]dioxine-6-carboxamide] | 77 nM | 17 nM
12 | CCC(=O)N(C)Cc1ccc2cc(C(=O)Nc3cc(NC(=O)c4ccc5c(c4)OCCO5)ccc3C)ccc2n1 [Example 78, N-(5-(2,3-dihydrobenzo[b][1,4]dioxine-6-carboxamido)-2-methylphenyl)-2-((N-methylpropionamido)methyl)quinoline-6-carboxamide] | 91 nM | 45 nM
13 | Cc1ccc(NC(=O)c2ccc3c(c2)OCCO3)cc1NC(=O)c1ccc2nc(OCCN(C)C)ccc2c1 [Example 62, N-(5-(2,3-dihydrobenzo[b][1,4]dioxine-6-carboxamido)-2-methylphenyl)-2-(2-(dimethylamino)ethoxy)quinoline-6-carboxamide] | 16 nM | 17 nM
14 | Cc1ccc(NC(=O)c2ccc3c(c2)OCCO3)cc1NC(=O)c1ccc2nc(CCN3CCCC3)ccc2c1 [Example 59, N-(5-(2,3-dihydrobenzo[b][1,4]dioxine-6-carboxamido)-2-methylphenyl)-2-(2-(pyrrolidin-1-yl)ethyl)quinoline-6-carboxamide] | 410 nM | 15 nM
15 | CCc1ccc(NC(=O)c2ccc3c(c2)OCCO3)cc1NC(=O)c1ccc2ncccc2c1 [Example 133, N-(5-(2,3-dihydrobenzo[b][1,4]dioxine-6-carboxamido)-2-ethylphenyl)quinoline-6-carboxamide] | 111 nM | 127 nM
16 | Cc1ccc(NC(=O)c2ccc3c(c2)OCCO3)cc1NC(=O)c1ccc2nc(OCCNC(=O)OC(C)(C)C)ccc2c1 [Example 21, tert-butyl (2-((6-((5-(2,3-dihydrobenzo[b][1,4]dioxine-6-carboxamido)-2-methylphenyl)carbamoyl)quinolin-2-yl)oxy)ethyl)carbamate] | 84 nM | 141 nM
17 | Cc1ccc(NC(=O)c2ccc3c(c2)OCCO3)cc1NC(=O)c1ccc2c(c1)CCN2 [Example 84, N-(5-(2,3-dihydrobenzo[b][1,4]dioxine-6-carboxamido)-2-methylphenyl)indoline-5-carboxamide] | 95 nM | 184 nM
18 | Cc1ccc(NC(=O)c2ccc3c(c2)OCCO3)cc1NC(=O)c1ccc2nc(OCCN3CCOCC3)ccc2c1 [Example 66, N-(5-(2,3-dihydrobenzo[b][1,4]dioxine-6-carboxamido)-2-methylphenyl)-2-(2-morpholinoethoxy)quinoline-6-carboxamide] | 40 nM | 30 nM
19 | CNC(=O)c1ccc(C(=O)Nc2cc(NC(=O)c3ccc4c(c3)OCCO4)ccc2C)cn1 [Example 33, N5-(5-(2,3-dihydrobenzo[b][1,4]dioxine-6-carboxamido)-2-methylphenyl)-N2-methylpyridine-2,5-dicarboxamide] | 230 nM | 797 nM
20 | Cc1ccc(NC(=O)c2ccc3c(c2)OCCO3)cc1NC(=O)c1ccc2oc(=O)ccc2c1 [Example 4, N-(4-methyl-3-(2-oxo-2H-chromene-6-carboxamido)phenyl)-2,3-dihydrobenzo[b][1,4]dioxine-6-carboxamide] | 18 nM | 10 nM
21 | Cc1ccc(NC(=O)c2ccc3c(c2)OCCO3)cc1NC(=O)c1ccc2nc(OCCCN(C)C)ccc2c1 [Example 51, N-(5-(2,3-dihydrobenzo[b][1,4]dioxine-6-carboxamido)-2-methylphenyl)-2-(3-(dimethylamino)propoxy)quinoline-6-carboxamide] | 10 nM | 4 nM
22 | Cc1ccc(NC(=O)c2ccc3c(c2)OCCO3)cc1NC(=O)c1ccc2c(c1)CCCO2 [Example 9, N-(3-(chroman-6-carboxamido)-4-methylphenyl)-2,3-dihydrobenzo[b][1,4]dioxine-6-carboxamide] | 90 nM | 22 nM
23 | Cc1ccc(NC(=O)c2ccc3c(c2)OCCO3)cc1NC(=O)c1ccc(-n2cccn2)cc1 [Example 107, N-(3-(4-(1H-pyrazol-1-yl)benzamido)-4-methylphenyl)-2,3-dihydrobenzo[b][1,4]dioxine-6-carboxamide] | 227 nM | 295 nM
24 | Cc1ccc(NC(=O)c2ccc3c(c2)OCCO3)cc1NC(=O)c1ccc2nc(OC[C@@H]3CCCN3C)ccc2c1 [Example 53, (S)—N-(5-(2,3-dihydrobenzo[b][1,4]dioxine-6-carboxamido)-2-methylphenyl)-2-((1-methylpyrrolidin-2-yl)methoxy)quinoline-6-carboxamide] | 7 nM | 7 nM
25 | COCCOc1ccc2cc(C(=O)Nc3cc(NC(=O)c4ccc5c(c4)OCCO5)ccc3C)ccc2n1 [Example 3, N-(5-(2,3-dihydrobenzo[b][1,4]dioxine-6-carboxamido)-2-methylphenyl)-2-(2-methoxyethoxy)quinoline-6-carboxamide] | 29 nM | 7 nM
26 | Cc1ccc(NC(=O)c2ccc3c(c2)OCCO3)cc1NC(=O)c1ccc2nc(OCCN3CCCC(F)C3)ccc2c1 (stereo not drawn) [Example 57, N-(5-(2,3-dihydrobenzo[b][1,4]dioxine-6-carboxamido)-2-methylphenyl)-2-(2-(3-fluoropiperidin-1-yl)ethoxy)quinoline-6-carboxamide] | 31 nM | 37 nM
27 | Cc1ccc(NC(=O)c2ccc3c(c2)OCCO3)cc1NC(=O)c1cnc2[nH]cnc2c1 [Example 92, N-(5-(2,3-dihydrobenzo[b][1,4]dioxine-6-carboxamido)-2-methylphenyl)-3H-imidazo[4,5-b]pyridine-6-carboxamide] | 3280 nM | 4410 nM
28 | Cc1ccc(NC(=O)c2ccc3c(c2)OCCO3)cc1NC(=O)c1cc(F)c2ncccc2c1 [Example 136, N-(5-(2,3-dihydrobenzo[b][1,4]dioxine-6-carboxamido)-2-methylphenyl)-8-fluoroquinoline-6-carboxamide] | 4 nM | 14 nM
29 | COCc1ccc(NC(=O)c2ccc3c(c2)OCCO3)cc1NC(=O)c1ccc2nc(C)ccc2c1 [Example 166, N-(5-(2,3-dihydrobenzo[b][1,4]dioxine-6-carboxamido)-2-(methoxymethyl)phenyl)-2-methylquinoline-6-carboxamide] | 68 nM | 298 nM
30 | Cc1ccc(NC(=O)c2ccc3c(c2)OCCO3)cc1NC(=O)c1ccc2cnc(OCCN3CCCC3)cc2c1 [Example 156, N-(5-(2,3-dihydrobenzo[b][1,4]dioxine-6-carboxamido)-2-methylphenyl)-3-(2-(pyrrolidin-1-yl)ethoxy)isoquinoline-6-carboxamide] | 79 nM | 161 nM
